Assay results: patent US20220395511A1, “COMPOSITIONS AND METHODS FOR INCREASING CELL SURFACE OXYTOCIN RECEPTOR (OXTR)” (Washington University, priority 2021, published 2022)
“Also recorded” adds a separate entry of the source. Like-named read-outs stand apart in the source and are kept apart here.

What was measured:
[1] = target: T1, WT OXTR endogenously expressed in hTERT-HM cells (Homo sapiens, UniProt P30559); test: Quantitative flow cytometry of cell surface HA-OXTR in hTERT-HM cells; format: cell-based; conditions: for decrease of baseline cell surface OXTR abundance: cycloheximide 25 μg/mL, brefeldin A 5 μg/mL
T1 construct: hTERT-immortalized human myometrial (hTERT-HM) cells, which endogenously express WT OXTR; endogenous in cells; host or cells: hTERT-HM (genome-edited: HA knock-in at the OXTR locus)
T1 sequence (P30559 1-389): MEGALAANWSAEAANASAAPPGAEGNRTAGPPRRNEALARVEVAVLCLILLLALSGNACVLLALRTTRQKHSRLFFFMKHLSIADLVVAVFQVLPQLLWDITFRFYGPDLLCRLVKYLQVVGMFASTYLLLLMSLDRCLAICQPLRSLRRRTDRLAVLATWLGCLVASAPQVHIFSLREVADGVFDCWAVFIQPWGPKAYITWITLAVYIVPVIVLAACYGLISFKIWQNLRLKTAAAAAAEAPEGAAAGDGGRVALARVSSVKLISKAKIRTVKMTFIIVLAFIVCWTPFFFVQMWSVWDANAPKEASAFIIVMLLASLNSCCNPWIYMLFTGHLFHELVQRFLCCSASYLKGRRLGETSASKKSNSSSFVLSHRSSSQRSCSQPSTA
Method: These experiments were performed in the hTERT-immortalized human myometrial cell line, which was modified to introduce an N-terminal HA tag upstream of OXTR. […] OXTR was quantified by performing flow cytometry with a fluorescent antibody against HA. TCOT=TC-OT 39 ((2S)—N-[[4-[(4,10-dihydro-1-methylpyrazolo[3,4-b][1,5]benzodiazepin-5(1H)-yl)carbonyl]-2-methylphenyl]methyl]-2-[(hexahydro-4-methyl-1H-1,4-diazepin-1-yl)thioxomethyl]-1-pyrrolidinecarboxamide), partial OXTR agonist. CON=conivaptan (N-[4-(2-methyl-4,5-dihydro-3H-imidazo[4,5-d][1]benzazepine-6-carbonyl)phenyl]-2-phenylbenzamide; also known as YM087), vasopressin inhibitor. TASP=TASP 0390325 (2-(3-Chloro-4-fluorophenyl)-N-(1-methylethyl)-6-[3-(4-morpholinyl)propoxy]-4-oxo-pyrido[2,3-d]pyrimidine-3(4H)-acetamide hydrochloride), vasopressin inhibitor. WAY=WAY 267464 (4-(3,5-Dihydroxybenzyl)-N-(2-methyl-4-[(1-methyl-4,10-dihydropyrazolo[3,4-b][1,5]benzodiazepin-5(1H)-yl)carbonyl]benzyl)piperazine-1-carboxamide), OXTR agonist. TOL=tolvaptan (N-(4-{[(5R)-7-Chloro-5-hydroxy-2,3,4,5-tetrahydro-1H-1-benzazepin-1-yl]carbonyl}-3-methylphenyl)-2-methylbenzamide; also known as OPC41061), vasopressin inhibitor. OPC=OPC 21268 (N-[3-[4-[[4-(3,4-dihydro-2-oxo-1(2H)-quinolinyl)-1-piperidinyl]carbonyl]phenoxy]propyl]-acetamide), vasopressin inhibitor. SSR=SSR 149415 ((2S,4R)-1-[(3R)-5-Chloro-1-[(2,4-dimethoxyphenyl)sulfonyl]-2,3-dihydro-3-(2-methoxyphenyl)-2-oxo-1H-indol-3-yl]-4-hydroxy-N,N-dimethyl-2-pyrrolidinecarboxamide), vasopressin inhibitor. SR=SR49059 ((2S)-1-[[(2R,3S)-5-Chloro-3-(2-chlorophenyl)-1-[(3,4-dimethoxyphenyl)sulfonyl]-2,3-dihydro-3-hydroxy-1H-indol-2-yl]carbonyl]-2-pyrrolidinecarboxamide), vasopressin inhibitor. L371=L371,257 (1-[1-[4-(1-acetylpiperidin-4-yl)oxy-2-methoxybenzoyl]piperidin-4-yl]-4H-3,1-benzoxazin-2-one), OXTR antagonist.
Because specific antibodies to OXTR are not commercially available, CRISPR-Cas9 was used to introduce an HA tag at the N-terminus of OXTR in the hTERT-HM cell line. […]
To determine the mechanism of action of SR49059 and L371,257, hTERT-HM cells were treated for 12 h with cycloheximide (25 μg/mL), which inhibits protein translation, and brefeldin A (5 μg/mL), which blocks protein transport from the endoplasmic reticulum to the Golgi.
The Genome Engineering and iPSC Center at Washington University in St Louis used CRISPR-Cas9 to introduce an HA tag at the N-terminus of the OXTR gene in hTERT-HM cells. After drug incubation, cells were detached with TrypLE Express (Thermo Fisher) before flow cytometry.

OXTR = target: T2, OXTR (Homo sapiens, UniProt P30559); conditions: in words, cited from earlier work
T2 sequence (P30559 1-389): T1 sequence (P30559 1-389)

WT OXTR = target: T3, WT OXTR (Homo sapiens, UniProt P30559); test: Quantitative flow cytometry of cell surface WT HA-OXTR-GFP in transfected HEK293T cells; format: cell-based; conditions: for more surface WT OXTR than vehicle-treated cells: HEK293T, WT HA-OXTR-GFP, 10 μM, 16 h
T3 construct: expressed in transfected cells; host or cells: HEK293T (transient)
T3 sequence (P30559 1-389): T1 sequence (P30559 1-389)

[2] = target: T4, WT OXTR in hTERT-HM cells (Homo sapiens, UniProt P30559); test: Oxytocin-induced IP1 production in hTERT-HM cells; format: cell-based; conditions: for increase of maximal IP1 production: hTERT-HM, N=5 (FIG. 8D)
T4 construct: hTERT-immortalized human myometrial (hTERT-HM) cells, which endogenously express WT OXTR; endogenous in cells; host or cells: hTERT-HM
T4 sequence (P30559 1-389): T1 sequence (P30559 1-389)

[3] = hTERT-HM, HA-OXTR, 10 μM, 16 h (overnight)

Cc1ccccc1C(=O)Nc1ccc(C(=O)N2CCC[C@@H](O)c3cc(Cl)ccc32)c(C)c1 [OPC41061, N-(4-{[(5R)-7-Chloro-5-hydroxy-2,3,4,5-tetrahydro-1H-1-benzazepin-1-yl]carbonyl}-3-methylphenyl)-2-methylbenzamide]
effect on cell surface OXTR in hTERT-HM cells [1, 3]: increased

Cc1nc2c([nH]1)CCN(C(=O)c1ccc(NC(=O)c3ccccc3-c3ccccc3)cc1)c1ccccc1-2 [YM087, N-[4-(2-methyl-4,5-dihydro-3H-imidazo[4,5-d][1]benzazepine-6-carbonyl)phenyl]-2-phenylbenzamide]
reported OXTR affinity (OXTR): medium OXTR affinity
effect on cell surface OXTR in hTERT-HM cells [1, 3]: significantly decreased

Cc1cc(C(=O)N2Cc3cnn(C)c3Nc3ccccc32)ccc1CNC(=O)N1CCN(Cc2cc(O)cc(O)c2)CC1 [WAY26746, 4-(3,5-Dihydroxybenzyl)-N-(2-methyl-4-[(1-methyl-4,10-dihydropyrazolo[3,4-b][1,5]benzodiazepin-5(1H)-yl)carbonyl]benzyl)piperazine-1-carboxamide]
effect on cell surface OXTR in hTERT-HM cells [1, 3]: no effect

CC(C)NC(=O)Cn1c(-c2ccc(F)c(Cl)c2)nc2ncc(OCCCN3CCOCC3)cc2c1=O.Cl [TASP0390325, 2-(3-Chloro-4-fluorophenyl)-N-(1-methylethyl)-6-[3-(4-morpholinyl)propoxy]-4-oxo-pyrido[2,3-d]pyrimidine-3(4H)-acetamide hydrochloride]
reported OXTR affinity (OXTR; hydrochloride): extremely low affinity; also recorded: antagonist; low

CC(=O)NCCCOc1ccc(C(=O)N2CCC(N3C(=O)CCc4ccccc43)CC2)cc1 [OPC21268, N-[3-[4-[[4-(3,4-dihydro-2-oxo-1(2H)-quinolinyl)-1-piperidinyl]carbonyl]phenoxy]propyl]-acetamide]
reported OXTR affinity (OXTR): medium OXTR affinity

COc1ccc(S(=O)(=O)N2C(=O)[C@@](c3ccccc3OC)(N3C[C@H](O)C[C@H]3C(=O)N(C)C)c3cc(Cl)ccc32)c(OC)c1 [SSR149415, (2S,4R)-1-[(3R)-5-Chloro-1-[(2,4-dimethoxyphenyl)sulfonyl]-2,3-dihydro-3-(2-methoxyphenyl)-2-oxo-1H-indol-3-yl]-4-hydroxy-N,N-dimethyl-2-pyrrolidinecarboxamide]
reported OXTR affinity (OXTR): medium OXTR affinity

COc1ccc(S(=O)(=O)N2c3ccc(Cl)cc3[C@](O)(c3ccccc3Cl)[C@@H]2C(=O)N2CCC[C@H]2C(N)=O)cc1OC [SR49059, (2S)-1-[[(2R,3S)-5-Chloro-3-(2-chlorophenyl)-1-[(3,4-dimethoxyphenyl)sulfonyl]-2,3-dihydro-3-hydroxy-1H-indol-2-yl]carbonyl]-2-pyrrolidinecarboxamide]
reported OXTR affinity (OXTR): medium OXTR affinity
treatment time at which surface OXTR reached a plateau ([1]; hTERT-HM time course): 6 h
effect on cell surface OXTR in hTERT-HM cells [1, 3]: robustly increased
increase of cell surface OXTR abundance ([1]; hTERT-HM, 10 μM, 16 h): 2.3 fold
increase of surface OXTR localization after 4 h of treatment ([1]; hTERT-HM, 4 h): more than twofold
effect on cell surface OXTR in cells also treated with cycloheximide ([1]; hTERT-HM, 12 h, 10 μM with cycloheximide 25 μg/mL): no effect
effect on cell surface OXTR in cells also treated with brefeldin A ([1]; hTERT-HM, 12 h, with brefeldin A 5 μg/mL): no effect
surface OXTR localization at 48 h of treatment ([1]; hTERT-HM, 48 h): remained high
effect on cell surface WT OXTR (WT OXTR; HEK293T transfected with WT OXTR): robustly increased
more surface WT OXTR than vehicle-treated cells (WT OXTR): 170%
increase of maximal IP1 production [2]: 37%
increase of maximal oxytocin response (IP1 accumulation) ([2]; human myometrial (hTERT-HM) cells, 10 μM overnight, N=3 (FIG. 2)): 12%

C[C@H]1CCC/C=C/[C@@H]2C[C@H](O)C[C@H]2[C@H](O)/C=C/C(=O)O1 [brefeldin A]
decrease of baseline cell surface OXTR abundance ([1]; hTERT-HM, 12 h): 62%

COc1cc(OC2CCN(C(C)=O)CC2)ccc1C(=O)N1CCC(N2C(=O)OCc3ccccc32)CC1 [L371,257, 1-[1-[4-(1-acetylpiperidin-4-yl)oxy-2-methoxybenzoyl]piperidin-4-yl]-4H-3,1-benzoxazin-2-one]
effect on cell surface OXTR in cells also treated with brefeldin A [1]: no effect
effect on cell surface OXTR in hTERT-HM cells [1]: greatest effect of all the candidate compounds
increase of cell surface OXTR abundance [1]: 2.9 fold
increase of surface OXTR in cells treated with cycloheximide [1]: 20%
increase of surface OXTR localization after 4 h of treatment [1]: more than twofold
surface OXTR localization at 48 h of treatment [1]: remained high
treatment time at which surface OXTR reached a plateau [1]: 6 h
more surface WT OXTR than vehicle-treated cells (WT OXTR): 170%
increase of maximal IP1 production [2]: 35%

C[C@@H]1C[C@@H]([C@H](O)CC2CC(=O)NC(=O)C2)C(=O)[C@@H](C)C1 [Cycloheximide]
decrease of baseline cell surface OXTR abundance ([1]; hTERT-HM, 12 h): 18%

Cc1cc(C(=O)N2Cc3cnn(C)c3Nc3ccccc32)ccc1CNC(=O)N1CCC[C@H]1C(=S)N1CCCN(C)CC1 [TCOT39, (2S)-N-[[4-[(4,10-dihydro-1-methylpyrazolo[3,4-b][1,5]benzodiazepin-5(1H)-yl)carbonyl]-2-methylphenyl]methyl]-2-[(hexahydro-4-methyl-1H-1,4-diazepin-1-yl)thioxomethyl]-1-pyrrolidinecarboxamide]
effect on cell surface OXTR in hTERT-HM cells [1, 3]: decreased
